Assay [1] relates to Human odontoblast (HOB) cells. Briefly: Evaluation of calcification promoting action using human odontoblasts (Alizarin red and von Kossa staining). Format: cell-based. The conditions noted are these: for calcification promoting action: calcification medium with additive, Alizarin red / von Kossa staining; for relative calcification promoting action (comparison among compounds): compared by concentration of particularly high action and by extent of staining at 50 μM. The procedure:
1. Cultivation of Human Odontoblast (Human Odontoblast (HOB) Cells)
HOB cells are seeded in a T75 flask and cultivated until confluency was achieved. A culture medium (hereinafter referred to as “regular medium”) was prepared by adding 10% of fetal bovine serum (FBS) (Life Technologies Ltd.; Product No. 10437-028), 1% of penicillin-streptomycin (Life Technologies Ltd.; Product No. 15140-122), 1% of amphotericin B (Sigma-Aldrich, Product No. A2942-100ML) to MEMα (Life Technologies Ltd.; Product No. 12561-049, 12561-056). Cultivation was performed under an environment with a temperature of 37° C. and 5% of CO2.
Then the HOB Cells were seeded on an adherent cell cultivation plate (Sumitomo Bakelite Co., Ltd) such that the cell density per 1 well was 1.78 to 2.56×10^5 cells/mL, and cultivated under the same environment. As the adherent cell cultivation plate, plates having 6 to 96 wells were appropriately used.
Four days later, each culture medium was changed from the regular medium to a calcification medium, or to a culture medium (hereinafter, referred to as “additive containing calcification medium”) prepared by adding additional components shown in the following Table 4 and Table 5 to the calcification medium so as to achieve the concentrations shown in Table 4 and Table 5. The calcification medium is prepared by adding L (+)-ascorbic acid (Wako Pure Chemical Industries, Ltd. (currently Fujifilm Wako Pure Chemical Corporation), Product No. 016-04805) to the aforementioned regular mediums such that the concentration in the calcification medium (that is, the final concentration) was 50 μg/mL, and by adding β-glycerophosphoric acid (Fujifilm Wako Pure Chemical Corporation, Product No. 191-02042) to the aforementioned regular mediums such that the concentration in the calcification medium (that is, the final concentration) is 10 mM.
Then, the cultivation was performed under the environment at 37° C. with 5% of CO2 for 21 or 28 days while exchanging the calcification medium or the additive containing calcification medium twice a week. Then the following staining was performed.
Alizarin red staining and von Kossa staining were performed to evaluate calcification promoting effect.
Each well was washed twice using Dulbecco's phosphate buffered saline (DPBS) (Life Technologies Ltd.; Product No. 14190-144) the amount of which was equal to the specified amount of culture medium in the adherent cell cultivation plate. After removing the DPBS from each well, 4% paraformaldehyde phosphate buffer solution (Fujifilm Wako Pure Chemical Corporation, Product No. 163-20145), the amount of which was equal to a half the amount of the specified amount of the culture medium, was introduced to each well, and each well was left for five minutes at a room temperature.
Then, each well was washed twice using the DPBS the amount of which was equal to the specified amount of the culture medium. After removing the DPBS from each well, Alizarin red staining solution, the amount of which was equal to a half the amount of the specified amount of the culture medium, was introduced to each well, and each well was left for ten minutes. The Alizarin red staining solution was prepared by dissolving a commercially available staining solution (Product name: “Alizarin red S”, Wako Pure Chemical Industries, Ltd. (currently Fujifilm Wako Pure Chemical Corporation), Product No. 011-01192) with ultrapure water (Milli-Q (registered trademark) water), and the pH was adjusted to be within a range from 6.36 to 6.40 using ammonium hydroxide solution.
Each well was then washed five times using the ultrapure water (same as above), the amount of which was equal to the specified amount of the culture medium.
Each well was washed three times using the Dulbecco's phosphate buffered saline (DPBS) (same as above) the amount of which was equal to the specified amount of the culture medium in the adherent cell cultivation plate.

For assay [2] the following is noted: used in human, dental clinical practices; cited from earlier work.

“Also recorded” adds a separate entry of the source.

For `C[S+]([O-])CCCCN=C=S` (stereo not shown) [4-MSITC, 4-methylsulfinylbutyl isothiocyanate], the calcification promoting action result in assay [1] (HOB cells, 21 or 28 days) is “possess calcification promoting action”. The “relative calcification promoting action (comparison among compounds)” value (from here on “relative calcification promoting action”) in assay [1] is “particularly high”.
Consider `CCN[C@H]1C[C@H](C)S(=O)(=O)c2sc(S(N)(=O)=O)cc21` [dorzolamide, reference compound], for which the “effect on calcification when used with 6-methylsulfinylhexyl isothiocyanate” value in assay [1] (dorzolamide, inhibitor of carbonic anhydrase, used with 6-MSITC) is “calcification is inhibited”.
In the case of `C[S+]([O-])CCCCCCCCN=C=S` (stereo not shown) [8-MSITC, 8-methylsulfinyloctyl isothiocyanate], the calcification promoting action entry in assay [1] (HOB cells, 21 or 28 days) is reported as “possess calcification promoting action”. Further, in assay [1], the “relative calcification promoting action” value is given as “particularly high; also recorded: about the same as the calcification promoting action of the 4-MSITC”.
On to `S=C=NCCc1ccccc1` [PITC, phenethyl isothiocyanate], for which, in assay [1] (HOB cells, 21 or 28 days, staining), the “concentration at which particularly high calcification promoting action was observed” value was no less than 500 µM. The calcification promoting action result in assay [1] (HOB cells, 21 or 28 days) was “possess calcification promoting action”.
Turning to `C[S+]([O-])CCCCN` (stereo not shown) [4-MS amine, 4-methylsulfinylbutyl amine, reference compound], the calcification promoting action result in assay [1] (HOB cells, 21 or 28 days) is recorded as “completely no calcification promoting action”.
With `CS(=O)(=O)CCCCCCN=C=S` [6-MSFITC, 6-methylsulfonylhexyl isothiocyanate], the calcification promoting action result in assay [1] (HOB cells, 21 or 28 days) is given as “possess calcification promoting action”. In assay [1], the “relative calcification promoting action” value is listed as “particularly high; also recorded: higher calcification promoting action than the 4-MSITC”.
For the compound `[Ca+2].[OH-].[OH-]` [calcium hydroxide], in assay [2], the “normal duration of time until calcification occurs” value was “three months”.
Take `C=CCN=C=S` [AITC, allyl isothiocyanate, reference compound]: the calcification promoting action entry in assay [1] (HOB cells, 21 or 28 days) is given as “completely no calcification promoting action”. Also, the calcification action entry in assay [1] (range up to 500 μM) is “not exhibited”.

These data come from US20240041733A1, “DENTAL CARE COMPOSITION AND METHOD OF PROMOTING CALCIFICATION IN LIVING BODY TISSUE” (KINJIRUSHI CO., LTD., priority 2020, published 2024).
